Earlier results on 1 compound are cited in patent publication US10744110B2, “Methods of treating lung cancer” (Abraxis BioScience, LLC, priority 2013, dated 2020).

The data set deals with NSCLC. The following applies: single agent.

For the compound `CCC1=C[C@@H]2CN(C1)Cc1c([nH]c3ccccc13)[C@@](C(=O)OC)(c1cc3c(cc1OC)N(C)[C@H]1[C@@](O)(C(=O)OC)[C@H](OC(C)=O)[C@]4(CC)C=CCN5CC[C@]31[C@@H]54)C2` [vinorelbine], the “response rate (RR)” value was 29.4%.
